Source: patent US4816562A, “Novel substrate for plasma kallikrein and a method for measuring biological components using the same” (Nitto Boseki Co., Ltd., priority 1985, dated 1989)
Where “and” joins values, the source holds several entries; their conditions need not be identical. Equal values may be shown once. Where a SMILES comes first, the peptide text is derived from it. [ ]: non-standard residue; d: D form. The star is where a group is joined. pNA = O=[N+]([O-])c1ccc(N*)cc1

How the values were obtained:
Urokinase (UK) = target: T1, Urokinase (UK) (Homo sapiens, UniProt P00749); experiment: Substrate specificity: reaction of chromogenic substrates with urokinase, absorbance read-out; type: biochemical; details: for Absorbance (O.D.) UK: S0 = 2.0 mM, 37° C., 5 minutes, pH 8.2; for Relative reactivity with UK: PS-2203N taken as 100, initial substrate concentration S0 = 2 mM
T1 construct: purchased Mochida Pharmaceutical Lot No. 2A-139 (catalogue number not given)
Protocol: (§1) The specificities of the novel substrates synthesized above were examined by reacting them with various enzymes.
(§2) (1) Substrate solution: 2 mmoles/liter H2 O
(§3) (2) Buffer solution: Concentrations of Tris, NaCl and CaCl2 and pH value of reaction for every enzyme were as follows: […]
(§4) Into a silicone-treated test tube made of hard glass or a plastic were introduced 0.3 ml of a buffer solution and 0.1 ml of an enzyme reagent. After preheating them for 5 minutes in a thermostated bath kept at 37° C., 0.1 ml of substrate solution was added and an enzyme reaction was carried out at 37° C. for 5 minutes. When an exact five minutes had passed, 2.0 ml of the reaction stopper or the reaction-stopping color-forming reagent was added to stop the enzyme reaction, and subsequently the reaction mixture was allowed to stand at 37° C. for 10 minutes. Then, absorbance was measured at 405 nm or 700 nm.

[1] = target: T2, Glandular kallikrein (HGK) (Homo sapiens, UniProt P06870); experiment: Substrate specificity: reaction of chromogenic substrates with glandular kallikrein, absorbance read-out; type: biochemical, Human urine; details: for Absorbance (O.D.) HGK: S0 = 2.0 mM, 37° C., 5 minutes, pH 9.0; for Relative reactivity with HGK: PS-2203N taken as 100, initial substrate concentration S0 = 2 mM; for Reactivity with glandular kallikrein: relative to Z-D-Orn-Phe-Arg-PNA (PS-2203N) as 100
T2 construct: purchased Green Cross Lot No. 1003SM (catalogue number not given); host or cells: human urine
T2 sequence (P06870 25-262): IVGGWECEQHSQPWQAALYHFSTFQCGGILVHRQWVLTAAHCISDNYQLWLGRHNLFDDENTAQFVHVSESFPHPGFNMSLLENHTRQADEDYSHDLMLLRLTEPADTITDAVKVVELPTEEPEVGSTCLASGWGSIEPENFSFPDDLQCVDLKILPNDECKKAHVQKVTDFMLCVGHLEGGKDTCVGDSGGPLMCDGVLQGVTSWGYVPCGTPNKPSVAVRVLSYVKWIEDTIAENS
Protocol: as §1, §2, §3, §4

Xa factor (FXa) = target: T3, Xa factor (FXa) (Bos taurus, UniProt P00743); experiment: Substrate specificity: reaction of chromogenic substrates with Xa factor, absorbance read-out; type: biochemical, Bovine; details: for Absorbance (O.D.) FXa: S0 = 2.0 mM, 37° C., 5 minutes, pH 8.3; for Relative reactivity with FXa: PS-2203N taken as 100, initial substrate concentration S0 = 2 mM; for Reactivity with Xa factor: relative to Z-D-Orn-Phe-Arg-PNA (PS-2203N) as 100
T3 construct: purchased Sigma Lot No. 73F-9450 (catalogue number not given)
T3 sequence (P00743 234-492 limits assumed): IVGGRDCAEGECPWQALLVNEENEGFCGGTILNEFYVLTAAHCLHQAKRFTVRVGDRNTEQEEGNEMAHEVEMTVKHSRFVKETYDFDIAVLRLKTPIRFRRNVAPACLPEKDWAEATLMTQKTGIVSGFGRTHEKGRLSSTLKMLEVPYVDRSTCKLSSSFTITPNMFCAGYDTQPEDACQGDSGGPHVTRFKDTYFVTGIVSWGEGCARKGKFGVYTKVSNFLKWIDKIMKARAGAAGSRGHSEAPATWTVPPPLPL
T3 sequence (P00743 41-180 partner limits assumed): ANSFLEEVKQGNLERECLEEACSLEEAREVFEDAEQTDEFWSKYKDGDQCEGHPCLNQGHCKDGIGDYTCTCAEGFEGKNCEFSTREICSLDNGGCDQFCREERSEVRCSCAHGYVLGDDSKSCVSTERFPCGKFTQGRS
Protocol: as §1, §2, §3, §4

Plasma kallikrein (HPK) = target: T4, Plasma kallikrein (HPK) (Homo sapiens, UniProt P03952); experiment: Substrate specificity: reaction of chromogenic substrates with plasma kallikrein, absorbance read-out; type: biochemical; details: for Absorbance (O.D.) HPK: S0 = 2.0 mM, 37° C., 5 minutes, pH 9.0; for Relative reactivity with HPK: PS-2203N taken as 100, initial substrate concentration S0 = 2 mM
T4 construct: purchased AB Kabi Diagnostica Lot No. 3740152 (catalogue number not given)
T4 sequence (P03952 391-638 limits assumed): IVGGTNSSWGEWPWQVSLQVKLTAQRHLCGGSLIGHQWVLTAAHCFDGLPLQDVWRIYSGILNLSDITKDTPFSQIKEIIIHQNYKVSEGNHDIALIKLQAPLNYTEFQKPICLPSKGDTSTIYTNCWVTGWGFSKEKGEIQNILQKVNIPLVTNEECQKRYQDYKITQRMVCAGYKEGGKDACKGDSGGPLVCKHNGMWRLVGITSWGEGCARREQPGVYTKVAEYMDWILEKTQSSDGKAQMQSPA
T4 sequence (P03952 20-390 partner limits assumed): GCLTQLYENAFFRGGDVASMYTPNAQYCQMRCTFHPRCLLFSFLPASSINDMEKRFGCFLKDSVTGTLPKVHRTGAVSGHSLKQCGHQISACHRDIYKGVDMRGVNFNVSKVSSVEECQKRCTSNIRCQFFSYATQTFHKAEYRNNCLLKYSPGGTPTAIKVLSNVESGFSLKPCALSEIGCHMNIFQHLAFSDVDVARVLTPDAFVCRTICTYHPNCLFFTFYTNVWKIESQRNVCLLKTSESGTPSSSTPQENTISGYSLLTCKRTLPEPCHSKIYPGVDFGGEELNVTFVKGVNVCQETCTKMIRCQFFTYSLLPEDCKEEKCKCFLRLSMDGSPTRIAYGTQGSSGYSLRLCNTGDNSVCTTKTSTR
Protocol: as §1, §2, §3, §4

Plasmin (PL) = target: T5, Plasmin (PL) (Homo sapiens, UniProt P00747); experiment: Substrate specificity: reaction of chromogenic substrates with plasmin, absorbance read-out; type: biochemical; details: for Absorbance (O.D.) PL: S0 = 2.0 mM, 37° C., 5 minutes, pH 7.8; for Relative reactivity with PL: PS-2203N taken as 100, initial substrate concentration S0 = 2 mM; for Reactivity with plasmin: relative to Z-D-Orn-Phe-Arg-PNA (PS-2203N) as 100
T5 construct: purchased Green Cross Lot No. PL-35 (catalogue number not given)
T5 sequence (P00747 581-810 limits assumed): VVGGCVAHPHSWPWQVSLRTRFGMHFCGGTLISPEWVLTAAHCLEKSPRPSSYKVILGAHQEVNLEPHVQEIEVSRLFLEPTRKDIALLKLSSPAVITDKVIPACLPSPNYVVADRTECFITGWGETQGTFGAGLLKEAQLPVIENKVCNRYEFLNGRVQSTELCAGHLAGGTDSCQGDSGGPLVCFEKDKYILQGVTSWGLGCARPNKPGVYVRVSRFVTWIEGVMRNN
T5 sequence (P00747 97-580 partner limits assumed): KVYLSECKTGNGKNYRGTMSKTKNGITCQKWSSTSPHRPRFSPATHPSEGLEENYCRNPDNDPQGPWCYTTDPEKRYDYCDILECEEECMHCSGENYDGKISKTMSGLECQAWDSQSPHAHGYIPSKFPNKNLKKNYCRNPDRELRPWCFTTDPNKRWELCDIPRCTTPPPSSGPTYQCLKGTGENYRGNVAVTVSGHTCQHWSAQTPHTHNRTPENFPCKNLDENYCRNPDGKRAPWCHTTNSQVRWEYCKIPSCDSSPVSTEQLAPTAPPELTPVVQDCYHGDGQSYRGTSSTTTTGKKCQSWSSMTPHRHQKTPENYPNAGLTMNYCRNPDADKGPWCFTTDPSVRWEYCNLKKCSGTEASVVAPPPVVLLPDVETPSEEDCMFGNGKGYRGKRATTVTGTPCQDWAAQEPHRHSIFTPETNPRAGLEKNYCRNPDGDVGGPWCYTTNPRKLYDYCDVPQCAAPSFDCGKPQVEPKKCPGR
Protocol: as §1, §2, §3, §4

Thrombin (TH) = target: T6, Thrombin (TH) (Bos taurus, UniProt P00735); experiment: Substrate specificity: reaction of chromogenic substrates with thrombin, absorbance read-out; type: biochemical, Bovine; details: for Absorbance (O.D.) TH: S0 = 2.0 mM, 37° C., 5 minutes, pH 8.5; for Relative reactivity with TH: PS-2203N taken as 100, initial substrate concentration S0 = 2 mM; for Reactivity with thrombin: relative to Z-D-Orn-Phe-Arg-PNA (PS-2203N) as 100
T6 construct: purchased Mochida Pharmaceutical Lot No. 65146 (catalogue number not given)
Protocol: as §1, §2, §3, §4

[2] = 700 nm (CHA substrates, pentaamine ferroate)

N=C(N)NCCC[C@H](NC(=O)[C@H](Cc1ccccc1)NC(=O)[C@H]1CCCN1)C(=O)Nc1ccc([N+](=O)[O-])cc1 [S-2302, H-D-Pro-Phe-Arg-PNA, reference compound] (H-[dP]-Phe-Arg-pNA)
Absorbance (O.D.) UK (Urokinase (UK); 405 nm (PNA substrates)): 0.011 O.D. | Relative reactivity with UK (Urokinase (UK)): 50 | Reactivity with urokinase (Urokinase (UK); relative to Z-D-Orn-Phe-Arg-PNA (PS-2203N) as 100): 50% | Absorbance (O.D.) HGK ([1]; 405 nm (PNA substrates)): 0.021 O.D. | Relative reactivity with HGK [1]: 169 | Reactivity with glandular kallikrein [1]: 169% | Absorbance (O.D.) FXa (Xa factor (FXa); 405 nm (PNA substrates)): 0.389 O.D. | Relative reactivity with FXa (Xa factor (FXa)): 169 | Reactivity with Xa factor (Xa factor (FXa)): 169% | Absorbance (O.D.) HPK (Plasma kallikrein (HPK); 405 nm (PNA substrates)): 0.325 O.D. | Relative reactivity with HPK (Plasma kallikrein (HPK)): 131 | Absorbance (O.D.) PL (Plasmin (PL); 405 nm (PNA substrates)): 0.121 O.D. | Relative reactivity with PL (Plasmin (PL)): 48 | Reactivity with plasmin (Plasmin (PL)): 48% | Absorbance (O.D.) TH (Thrombin (TH); 405 nm (PNA substrates)): 0.152 O.D. | Relative reactivity with TH (Thrombin (TH)): 269 | Reactivity with thrombin (Thrombin (TH)): 269%

Z-D-Orn-Phe-Arg-PNA [PS-2203N, reference compound]
Absorbance (O.D.) UK (Urokinase (UK); 405 nm (PNA substrates)): 0.021 O.D. | Relative reactivity with UK (Urokinase (UK)): 100 | Absorbance (O.D.) HGK ([1]; 405 nm (PNA substrates)): 0.013 O.D. | Relative reactivity with HGK [1]: 100 | Absorbance (O.D.) FXa (Xa factor (FXa); 405 nm (PNA substrates)): 0.230 O.D. | Relative reactivity with FXa (Xa factor (FXa)): 100 | Absorbance (O.D.) HPK (Plasma kallikrein (HPK); 405 nm (PNA substrates)): 0.250 O.D. and 0.249 O.D. | Relative reactivity with HPK (Plasma kallikrein (HPK)): 100 | Absorbance (O.D.) PL (Plasmin (PL); 405 nm (PNA substrates)): 0.250 O.D. | Relative reactivity with PL (Plasmin (PL)): 100 | Absorbance (O.D.) TH (Thrombin (TH); 405 nm (PNA substrates)): 0.056 O.D. | Relative reactivity with TH (Thrombin (TH)): 100

Z--D-Lys--Phe--Arg--CHA.2HCl [PS-2200]
Absorbance (O.D.) UK (Urokinase (UK); [2]): 0.002 O.D. | Absorbance (O.D.) HGK [1, 2]: 0.010 O.D. | Absorbance (O.D.) FXa (Xa factor (FXa); [2]): 0.046 O.D. | Absorbance (O.D.) HPK (Plasma kallikrein (HPK); [2]): 0.316 O.D. | Absorbance (O.D.) PL (Plasmin (PL); [2]): 0.094 O.D. | Absorbance (O.D.) TH (Thrombin (TH); [2]): 0.009 O.D.

Tos-D-Lys-Phe-Arg-CHA.2HCl [PS-2205]
Absorbance (O.D.) UK (Urokinase (UK); [2]): 0.0 O.D. | Absorbance (O.D.) HGK [1, 2]: 0.014 O.D. | Absorbance (O.D.) FXa (Xa factor (FXa); [2]): 0.010 O.D. | Absorbance (O.D.) HPK (Plasma kallikrein (HPK); [2]): 0.255 O.D. | Absorbance (O.D.) PL (Plasmin (PL); [2]): 0.158 O.D. | Absorbance (O.D.) TH (Thrombin (TH); [2]): 0.015 O.D.

SBz--D-Lys--Phe--Arg--CHA.2HCl [PS-2206]
Absorbance (O.D.) UK (Urokinase (UK); [2]): 0.0 O.D. | Absorbance (O.D.) HGK [1, 2]: 0.010 O.D. | Absorbance (O.D.) FXa (Xa factor (FXa); [2]): 0.016 O.D. | Absorbance (O.D.) HPK (Plasma kallikrein (HPK); [2]): 0.234 O.D. | Absorbance (O.D.) PL (Plasmin (PL); [2]): 0.094 O.D. | Absorbance (O.D.) TH (Thrombin (TH); [2]): 0.007 O.D.

MOC--D-Lys--Phe--Arg--CHA.2HCl [PS-2204]
Absorbance (O.D.) UK (Urokinase (UK); [2]): 0.0 O.D. | Absorbance (O.D.) HGK [1, 2]: 0.016 O.D. | Absorbance (O.D.) FXa (Xa factor (FXa); [2]): 0.046 O.D. | Absorbance (O.D.) HPK (Plasma kallikrein (HPK); [2]): 0.301 O.D. | Absorbance (O.D.) PL (Plasmin (PL); [2]): 0.107 O.D. | Absorbance (O.D.) TH (Thrombin (TH); [2]): 0.010 O.D.

i-BOC--D-Lys--Phe--Arg--CHA.2HCl [PS-2202]
Absorbance (O.D.) UK (Urokinase (UK); [2]): 0.0 O.D. | Absorbance (O.D.) HGK [1, 2]: 0.006 O.D. | Absorbance (O.D.) FXa (Xa factor (FXa); [2]): 0.040 O.D. | Absorbance (O.D.) HPK (Plasma kallikrein (HPK); [2]): 0.245 O.D. | Absorbance (O.D.) PL (Plasmin (PL); [2]): 0.128 O.D. | Absorbance (O.D.) TH (Thrombin (TH); [2]): 0.005 O.D.

Z-D-Orn-Phe-Arg-CHA [PS-2203]
Absorbance (O.D.) UK (Urokinase (UK); [2]): 0.0 O.D. | Relative reactivity with UK (Urokinase (UK)): 0 | Absorbance (O.D.) HGK [1, 2]: 0.005 O.D. | Relative reactivity with HGK [1]: 15 | Reactivity with glandular kallikrein [1]: 15% | Absorbance (O.D.) FXa (Xa factor (FXa); [2]): 0.022 O.D. | Relative reactivity with FXa (Xa factor (FXa)): 4 | Reactivity with Xa factor (Xa factor (FXa)): 4% | Absorbance (O.D.) HPK (Plasma kallikrein (HPK); [2]): 0.331 O.D. | Relative reactivity with HPK (Plasma kallikrein (HPK)): 59 | Absorbance (O.D.) PL (Plasmin (PL); [2]): 0.079 O.D. | Relative reactivity with PL (Plasmin (PL)): 14 | Reactivity with plasmin (Plasmin (PL)): 14% | Absorbance (O.D.) TH (Thrombin (TH); [2]): 0.007 O.D. | Relative reactivity with TH (Thrombin (TH)): 2 | Reactivity with thrombin (Thrombin (TH)): 2%
